{
  "source": "patent US11376278B2",
  "about": "“Compositions and methods for treating disease” (Sulfilatec, Inc., priority 2016, dated 2022)",
  "key": {"[1]": {"system": "cardiac fibrosis in salt sensitive Dahl rats on a high salt diet", "assay": "Cardiac interstitial fibrosis, Masson's Trichrome staining, Dahl rats on high salt diet", "assay_type": "in vivo, rat", "conditions": "300 mg NaBr per kg AIN-76a+8% NaCl, 10 weeks, p<0.0001", "procedure": "(§1) AIN-76A was base diet for all animals. […] Fibrosis determined from 5 μm tissue sections stained with Masson's Trichrome. […] Approximately 25-30 images were collected and processed per animal."}, "[2]": {"assay": "Serum Br- concentration in Dahl rats after 10 weeks on diet (mass spectrometry)", "conditions": "AIN-76A+8% NaCl+Br diet", "experimental": "(A) Serum Br^− concentrations from rats fed a daily diet over 10 weeks of “AIN-76A”, “AIN-76A+8% NaCl”, “AIN-76A+Br”, or “AIN-76A+8% NaCl+Br”. […] The two diets containing 8% NaCl (eg. “AIN-76A+8% NaCl” and “AIN-76A+8% NaCl+Br”) were fed to Dahl rats while the remaining two diets (eg. “AIN-76A” and “AIN-76A+Br”) were fed to SHR, as indicated in panel A. Serum Br^− measurements were determined using mass spectrometry."}, "[3]": {"system": "humans (sedative, anti-epilepsy effect)", "conditions": "in vivo; cited from earlier work"}, "[4]": {"assay": "Serum Br- concentration in spontaneously hypertensive rats (SHR) after 10 weeks on diet", "assay_type": "in vivo, rat", "conditions": "AIN-76A+Br diet", "experimental": "(A) Serum Br^− concentrations from rats fed a daily diet over 10 weeks of “AIN-76A”, “AIN-76A+8% NaCl”, “AIN-76A+Br”, or “AIN-76A+8% NaCl+Br”. Salt sensitive Dahl rats as well as Spontaneously Hypertensive Rats (SHR) were used in these studies. The two diets containing 8% NaCl (eg. “AIN-76A+8% NaCl” and “AIN-76A+8% NaCl+Br”) were fed to Dahl rats while the remaining two diets (eg. “AIN-76A” and “AIN-76A+Br”) were fed to SHR, as indicated in panel A. Serum Br^− measurements were determined using mass spectrometry.\nRats were administered 10 mg of NaBr per kg of AIN76A diet for 10 weeks. At the end of the study, serum Br^− levels in Br-treated rats were compared to serum Br^− levels in SHR on AIN76A as well as Wistar rats on AIN76A."}, "cardiac fibrosis in SHR": {"system": "cardiac fibrosis in SHR", "assay": "Cardiac interstitial fibrosis, Masson's Trichrome staining, SHR", "assay_type": "in vivo, rat", "conditions": "male SHR, 10 mg NaBr per kg AIN-76a, oral daily, 10 weeks, p<0.0001", "procedure": "as §1\nFollowing conclusion of the in vivo study, rat hearts were formalin-fixed, paraffin-embedded, and 5 μm-thick sections were obtained for histochemical analysis."}, "[5]": {"system": "salt sensitive Dahl rats on high salt diet", "assay": "Survival of salt sensitive Dahl rats on high salt (8% NaCl) diet, 10 week study", "assay_type": "in vivo, rat", "excerpt": "Control rats received AIN76A without supplemental chloride or bromide. 9 rats per study arm.\nMortality events were counted over the 10 week study. […] Thus, administration of Br^− and together increased the survival probability of 52% as compared to administration of alone (FIG. 1)."}, "[6]": {"system": "spontaneously hypertensive rat (SHR) model of cardiovascular disease", "assay": "10 week repeat dosing study in SHR disease model (organ weights, survival, urinary protein, safety)", "assay_type": "in vivo", "procedure": "(A-B) Heart and kidney weights from 10 week repeat dosing study in SHR model. Br^− administered daily via diet, with AIN-76a as base diet. WKY served as genetic control. Both kidneys per animal weighed together. […] (C-D) Heart and kidney weights from panels A-B normalized to body weight. […] (E) Rats were administered a diet of AIN76A with or without 10 mg NaBr per kg feed (“SHR” and “SHR+Br” study arms, respectively). Survival probability was calculated between SHR rats receiving dietary Br^− and SHR rats receiving AIN76A control diet over a 10 week study period. As a second control, Wistar Kyoto (WKY) rats were fed AIN76A control diet over the same period. 8 rats per study arm.\nEight SHR animals received AIN76A diet for 10 weeks while 8 SHR animals received AIN76A supplemented with 10 mg NaBr/kg diet."}, "10 week-old male SHR": {"system": "10 week-old male SHR", "assay": "Blood pressure and heart rate (tail cuff) one day after single IP administration in SHR", "assay_type": "in vivo, rat", "conditions": "single IP 154.5 μg NaBr per kg", "procedure": "(A) In 10 week-old male SHR, single administration of Br^− reduced systolic and diastolic blood pressures compared to saline control. […] (C-D) Measured values for systolic (C) and diastolic (D) blood pressure, denoting statistical significance where achieved. 154.5 μg NaBr per kg rat body weight injected via IP. All “Post Administration” data collected one day following administration. n=8 in Br Treatment group, =5 in saline control. BP & HR measured via tail cuff. *:p<0.05, t test.\nThe inventors next asked whether Br^− exerts any short-term activity in addition to the improved cardiac fibrosis noted after 10 weeks administration. Returning to the SHR preclinical model of disease, the inventors specifically asked whether Br^− administration modulates certain biomarkers associated with cardiovascular disease at one day post-administration. To this end, Br^− was administered to 8 SHR via intraperitoneal (IP) injection with an estimated 0.154 μg NaBr per gram body weight. For control, 8 SHR were administered saline via IP injection containing an estimated 4 ng NaBr per gram body weight. […] Without wishing to be bound by theory, embodiments as described herein can therapeutically improve certain hemodynamic and circulating biomarkers that are associated with progression of cardiovascular and kidney diseases. Moreover, Br^− achieves its cardiovascular and renal therapeutic activities in part via modulation of natriuretic peptide signaling."}, "dogs (epilepsy)": {"system": "dogs (epilepsy)", "conditions": "dogs that do not respond to an initial course of Br- treatment; cited from earlier work"}, "[7]": {"system": "acute heart failure patients", "conditions": "acute heart failure patients in Japan; cited from earlier work"}, "[8]": {"system": "patients with acute decompensated heart failure", "conditions": "cited from earlier work"}, "[9]": {"conditions": "one day post administration, vs saline"}},
  "note": "“And” between values parts separate entries of the source, which are not always exact repeats. Equal values may be shown once. “Also recorded” adds a separate entry of the source.",
  "data": [
    {"compound": "[Br-].[Na+]", "note": "[Br^−, sodium bromide]", "values": [
      {"measurement": "cardiac fibrosis (Masson's Trichrome)", "setting": "[1]", "value": "less cardiac fibrosis"},
      {"measurement": "serum Br- concentration, toxicity assessment", "setting": "[2]", "value": "non-toxic"},
      {"measurement": "circulating/serum Br- levels at which the anti-epilepsy effect occurs", "setting": "[3]", "value": "> 6 mM and 6 to 12 mM"},
      {"measurement": "serum Br- concentration, toxicity assessment", "setting": "[4]", "value": "non-toxic"},
      {"measurement": "cardiac fibrosis (Masson's Trichrome blue staining)", "setting": "cardiac fibrosis in SHR", "value": "dramatic reduction; also recorded: less cardiac fibrosis"},
      {"measurement": "increase of survival probability compared to high salt alone", "setting": "[5]; Dahl rats, 8% NaCl + 300 mg NaBr per kg food vs 8% NaCl, 10 weeks", "value": 52, "unit": "%"},
      {"measurement": "survival probability", "setting": "[5]; Dahl rats, AIN76A with 8% NaCl and 300 mg NaBr per kg food, 10 week study", "value": 67, "unit": "%"},
      {"measurement": "survival probability vs High Salt alone (log rank test)", "setting": "[5]; High Salt+Br arm (AIN76A+8% NaCl+300 mg NaBr per kg feed), 9 rats per arm, p<0.001", "value": "Significantly greater survival probability"},
      {"measurement": "survival probability among groups", "setting": "[6]; SHR+Br vs SHR and WKY, 10 week study, 8 rats per arm", "value": "no statistical difference"},
      {"measurement": "absolute heart weight vs SHR on AIN-76a alone", "setting": "[6]; SHR, 10 mg NaBr/kg diet daily, 10 weeks, p<0.05", "value": "significantly reduced; also recorded: Statistically significant reduction"},
      {"measurement": "urinary protein levels", "setting": "[6]; SHR, 10 mg NaBr/kg diet, through the end of the 10 week study", "value": "a difference that persisted"},
      {"measurement": "urinary microprotein/creatinine ratio (urinary protein levels)", "setting": "[6]; SHR, after one day on study diet (10 mg NaBr/kg)", "value": "significantly lower; also recorded: significantly reduced"},
      {"measurement": "diastolic blood pressure", "setting": "10 week-old male SHR; [9]", "value": "reduced"},
      {"measurement": "systolic blood pressure", "setting": "10 week-old male SHR; [9]", "value": "statistically significant reductions; also recorded: reduced"},
      {"measurement": "heart rate", "setting": "10 week-old male SHR; one day post, not statistically significant (p=0.052)", "value": "possible reduction"},
      {"measurement": "therapeutic serum Br- for sedative effect", "setting": "dogs (epilepsy)", "value": "above 25 mM"}
    ]},
    {"compound": "CC[C@H](C)[C@@H]1NC(=O)[C@H](CCCNC(=N)N)NC(=O)[C@H](CC(=O)O)NC(=O)[C@H](CCSC)NC(=O)[C@H](CCCNC(=N)N)NC(=O)CNC(=O)CNC(=O)[C@H](Cc2ccccc2)NC(=O)[C@@H](NC(=O)[C@H](CO)NC(=O)[C@H](CO)NC(=O)[C@H](CCCNC(=N)N)NC(=O)[C@H](CCCNC(=N)N)NC(=O)[C@H](CC(C)C)NC(=O)[C@@H](N)CO)CSSC[C@@H](C(=O)N[C@@H](CC(N)=O)C(=O)N[C@@H](CO)C(=O)N[C@@H](Cc2ccccc2)C(=O)N[C@@H](CCCNC(=N)N)C(=O)N[C@@H](Cc2ccc(O)cc2)C(=O)O)NC(=O)CNC(=O)[C@H](CC(C)C)NC(=O)CNC(=O)[C@H](CO)NC(=O)[C@H](CCC(N)=O)NC(=O)[C@H](C)NC(=O)CNC1=O", "note": "[carperitide]", "values": [
      {"measurement": "in-hospital mortality", "setting": "[7]", "value": "increased in-hospital mortality"}
    ]},
    {"compound": "nesiritide", "values": [
      {"measurement": "mortality", "setting": "[8]", "value": "increased mortality"},
      {"measurement": "renal function", "setting": "[8]", "value": "worsening renal function"}
    ]}
  ]
}
